Measured values published in patent publication US20260364030A1, “NOVEL SELECTIVE INHIBITORS OF LYSYL OXIDASES” (Syntara Limited, priority 2022, published 2026).
Like-named read-outs stand apart in the source and are kept apart here.

Assays:
Assay type in all cases: biochemical
Bovine LOX = biological target: T1, Bovine LOX (Bos taurus, UniProt P33072); test: LOX inhibition, hydrogen peroxide Amplex Red oxidation assay
T1 sequence (P33072 170-418): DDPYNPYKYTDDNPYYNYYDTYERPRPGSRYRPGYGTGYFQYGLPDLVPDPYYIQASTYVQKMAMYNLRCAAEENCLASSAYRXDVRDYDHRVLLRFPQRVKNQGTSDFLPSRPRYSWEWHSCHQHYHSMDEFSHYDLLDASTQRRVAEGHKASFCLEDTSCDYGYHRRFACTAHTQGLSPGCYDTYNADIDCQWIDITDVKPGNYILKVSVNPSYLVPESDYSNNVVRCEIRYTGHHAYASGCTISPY
Description: (§1) LOX and LOXL protein family members can be acquired as recombinant active proteins from commercial sources, or extracted from animal tissues like bovine aorta, tendons, pig skin; or prepared from cell cultures. The inhibitory effects of the compounds of the present invention were tested against the given LOX or LOXL preparation using a method based on the detection of hydrogen peroxide with an Amplex Red oxidation assay [Zhou et al, 1997]. The assay was developed using either 384 or 96 well format. Briefly, in a standard black, clear bottom 384 well plate assay 25 µL of a dilution of any of the isoenzymes and orthologues in 1.2 M urea, 50 mM sodium borate buffer (pH 8.2) were added into each well in the presence of […] and 0.5 mM pargyline (to inhibit SSAO and MAO-B and MAO-A, respectively; not necessary if the enzyme is from a recombinant or purified form). […] of a reaction mixture containing twice the KM concentration of putrescine (Sigma Aldrich, e.g. 20 mM for LOX and LOXL1 or 10 mM for LOXL2 and 4 mM for LOXL3 and LOXL4), 120 µM Amplex Red (Thermo Fisher Scientific) and 1.5 U/mL horseradish peroxidase (Sigma Aldrich) prepared in 1.2 M urea, 50 mM sodium borate buffer (pH 8.2) were then added to the corresponding wells. The above volumes were doubled in the case of 96 wells plate. The fluorescence (RFU) was read every 2.5 min for 30 min at 37 °C, excitation 544 nm and emission 590 (Optima; BMG labtech). The slope/min of the kinetics for each well was calculated using MARS data analysis software (BMG labtech) and this value was used to deduce the IC50 value (Dotmatics). The ability of the inventive compounds to inhibit the amine oxidase activity of LOX and other family members is shown in Table 5.

LOXL2 [1] = biological target: T2, LOXL2 (Homo sapiens, UniProt Q9Y4K0); test: LOXL2 inhibition, Amplex Red oxidation assay
T2 sequence (Q9Y4K0 26-774): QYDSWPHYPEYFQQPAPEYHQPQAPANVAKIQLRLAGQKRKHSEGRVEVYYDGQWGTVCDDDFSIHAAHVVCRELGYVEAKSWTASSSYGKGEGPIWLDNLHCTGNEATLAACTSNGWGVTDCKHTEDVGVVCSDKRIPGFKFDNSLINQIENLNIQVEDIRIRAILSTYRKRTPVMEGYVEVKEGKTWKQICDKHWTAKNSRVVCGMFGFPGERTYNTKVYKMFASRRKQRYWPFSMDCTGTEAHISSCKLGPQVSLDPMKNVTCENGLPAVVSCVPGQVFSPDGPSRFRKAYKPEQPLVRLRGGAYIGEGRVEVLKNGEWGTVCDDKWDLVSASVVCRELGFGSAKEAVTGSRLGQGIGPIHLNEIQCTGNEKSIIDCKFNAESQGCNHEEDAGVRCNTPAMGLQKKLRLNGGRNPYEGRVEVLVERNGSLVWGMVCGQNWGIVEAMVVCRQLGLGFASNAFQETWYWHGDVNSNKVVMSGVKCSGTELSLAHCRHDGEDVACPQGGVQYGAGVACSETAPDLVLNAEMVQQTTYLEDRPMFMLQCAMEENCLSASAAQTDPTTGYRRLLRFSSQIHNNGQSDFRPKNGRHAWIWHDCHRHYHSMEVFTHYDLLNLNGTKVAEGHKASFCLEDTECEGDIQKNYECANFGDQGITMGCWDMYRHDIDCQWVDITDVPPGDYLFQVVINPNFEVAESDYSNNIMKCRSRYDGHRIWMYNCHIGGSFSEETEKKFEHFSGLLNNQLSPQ
Description: as §1

LOXL1 = biological target: T3, LOXL1 (Homo sapiens, UniProt Q08397); test: Jump dilution experiment, sustained inhibition of LOXL1; conditions: for LOXL1 enzyme activity recovery: at 21-30 min after jump dilution, 10×IC50, 40 min preincubation at 37 °C; for Sustained inhibition of LOXL1: jump dilution, 21-30 min
T3 sequence (Q08397 96-574): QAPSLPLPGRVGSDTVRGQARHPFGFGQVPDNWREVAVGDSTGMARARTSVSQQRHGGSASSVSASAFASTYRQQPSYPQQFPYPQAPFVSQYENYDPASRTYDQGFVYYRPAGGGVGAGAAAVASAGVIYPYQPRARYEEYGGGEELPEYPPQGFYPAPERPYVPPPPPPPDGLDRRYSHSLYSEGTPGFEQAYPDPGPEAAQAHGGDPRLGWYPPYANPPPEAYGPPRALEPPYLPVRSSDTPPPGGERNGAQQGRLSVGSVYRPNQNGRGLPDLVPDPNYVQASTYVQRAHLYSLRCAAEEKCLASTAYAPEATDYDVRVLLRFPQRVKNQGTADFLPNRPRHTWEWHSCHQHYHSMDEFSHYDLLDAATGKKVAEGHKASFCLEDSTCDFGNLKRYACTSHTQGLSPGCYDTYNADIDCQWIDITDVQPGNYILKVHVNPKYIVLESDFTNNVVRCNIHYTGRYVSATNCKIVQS
Description: (§2) Jump Dilution experiment: The assay was developed using a 96 well format and the starting enzyme concentration was set 100 times higher than for the inhibition studies. The enzyme was incubated for 40 minutes at 37 °C in presence of 10×IC50 concentrations of the test inhibitor. After the incubation, the mixture was diluted 50x in assay buffer, followed by a further 2× dilution in Amplex Red-horseradish peroxidase-putrescine reaction mix (as for Example 2) prior to the fluorescence measurement. Results were expressed in % recovery of the signal at 21-30 min by comparison with non-inhibited controls. LOXL1 is used as a surrogate for LOX owing to similar pharmacological behaviour.

LOXL2 [2] = biological target: T2, LOXL2; test: Jump dilution experiment, sustained inhibition of LOXL2; conditions: for LOXL2 enzyme activity recovery: at 21-30 min after jump dilution, 10×IC50, 40 min preincubation at 37 °C; for Sustained inhibition of LOXL2: jump dilution, 21-30 min
Description: as §2

[3] = 30 min incubation with enzyme at 37 °C
[4] = 30 min incubation with enzyme at 37 °C, read-out: Human recombinant LOXL2 Activity IC50

Row | IC50 (Bovine LOX; 2 h incubation with enzyme at 37 °C) | IC50 (LOXL2 [1]; 2 h incubation with enzyme at 37 °C, read-out: Human LOXL2 Activity IC50) | SMILES | IC50 (Bovine LOX; [3]) | IC50 (LOXL2 [1]; [4]) | LOXL1 enzyme activity recovery (LOXL1) | Sustained inhibition of LOXL1 (LOXL1) | LOXL2 enzyme activity recovery (LOXL2 [2]) | Sustained inhibition of LOXL2 (LOXL2 [2])
1 |  |  | N#CCCN [BAPN, β-aminopropionitrile, reference compound] | 2.3 µM | 0.4 µM | 0.3% | sustained inhibition | 11.2% | sustained inhibition
2 | < 5 µM | < 2 µM | NC/C(=C\F)CS(=O)(=O)c1ccccc1 [Compound 1, (E)-3-fluoro-2-((phenylsulfonyl)methyl)prop-2-en-1-amine] | 10 µM | 4.8 µM | 2.5% | sustained inhibition | 2.5% | sustained inhibition
